Test results: ChEMBL document CHEMBL4043273, “Phenotypic Optimization of Urea-Thiophene Carboxamides To Yield Potent, Well Tolerated, and Orally Active Protective Agents against Aminoglycoside-Induced Hearing Loss” (J Med Chem, 2018)
≈ marks a conversion by molar mass, not a printed value.

Columns and labels:
[1] = target: Voltage-gated inwardly rectifying potassium channel KCNH2 (Homo sapiens, UniProt Q12809)
Description: Inhibition of human ERG expressed in HEK293 cells assessed as decrease in peak tail current amplitude by path clamp method

Danio rerio = species on record: Danio rerio; assay: Protection against neomycin-induced hair cell death in AB zebra fish larvae assessed as increase in hair cell survival preincubated for 1 hr followed by neomycin challenge for 1 hr by DASPEI staining-based epifluorescence dissecting microscopic method; type: functional
[2] = Aqueous solubility of compound at pH 7.4; type: physicochemical; conditions: aqueous medium, read-out: solubility

Chain of Voltage-gated inwardly rectifying potassium channel KCNH2 (Q12809 whole entry): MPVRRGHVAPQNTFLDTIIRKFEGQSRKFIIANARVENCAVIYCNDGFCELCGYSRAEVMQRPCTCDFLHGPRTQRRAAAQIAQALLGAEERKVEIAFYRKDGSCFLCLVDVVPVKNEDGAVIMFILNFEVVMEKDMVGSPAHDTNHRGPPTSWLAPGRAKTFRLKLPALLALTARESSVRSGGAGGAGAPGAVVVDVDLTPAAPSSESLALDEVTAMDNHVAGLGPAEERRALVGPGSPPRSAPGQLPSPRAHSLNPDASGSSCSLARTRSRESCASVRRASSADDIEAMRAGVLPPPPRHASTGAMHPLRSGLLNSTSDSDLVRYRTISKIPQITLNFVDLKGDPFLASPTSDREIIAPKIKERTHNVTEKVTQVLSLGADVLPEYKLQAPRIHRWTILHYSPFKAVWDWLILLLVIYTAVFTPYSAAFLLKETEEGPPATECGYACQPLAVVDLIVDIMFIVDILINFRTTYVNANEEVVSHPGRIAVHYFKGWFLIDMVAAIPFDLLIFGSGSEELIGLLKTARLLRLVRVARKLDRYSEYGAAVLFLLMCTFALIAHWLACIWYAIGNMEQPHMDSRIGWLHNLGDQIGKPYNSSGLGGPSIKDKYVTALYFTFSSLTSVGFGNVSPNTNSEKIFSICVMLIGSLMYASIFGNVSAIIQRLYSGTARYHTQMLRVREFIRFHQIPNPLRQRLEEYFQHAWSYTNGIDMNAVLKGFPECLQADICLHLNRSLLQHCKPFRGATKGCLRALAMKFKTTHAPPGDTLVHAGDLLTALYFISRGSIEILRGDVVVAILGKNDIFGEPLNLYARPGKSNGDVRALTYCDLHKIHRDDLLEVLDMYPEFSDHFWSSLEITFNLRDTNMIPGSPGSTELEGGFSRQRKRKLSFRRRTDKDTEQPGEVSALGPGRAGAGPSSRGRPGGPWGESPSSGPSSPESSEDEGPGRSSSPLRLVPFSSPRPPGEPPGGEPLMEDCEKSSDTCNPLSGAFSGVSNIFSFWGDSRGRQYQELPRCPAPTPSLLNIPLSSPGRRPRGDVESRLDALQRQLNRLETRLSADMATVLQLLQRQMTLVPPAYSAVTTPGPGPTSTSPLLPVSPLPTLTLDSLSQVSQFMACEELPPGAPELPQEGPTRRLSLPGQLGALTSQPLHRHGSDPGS

Structure (SMILES)	IC50 [1]	EC50 (Danio rerio)	solubility [2]
CC[N+]1(C)CCc2c(sc(NC(=O)Nc3ccc(Cl)cc3)c2C(N)=O)C1 (stereo unspecified)	3.38 µM	1.96 µM	–
CCN1CCc2c(sc(NC(=O)NCC3CCCO3)c2C(N)=O)C1 (stereo unspecified)	–	> 25 µM	–
CC(C)(C)OC(=O)CCCCN1CCc2c(sc(NC(=O)Nc3ccc(Cl)cc3)c2C(N)=O)C1	–	0.71 µM	–
CC(C)(C)OC(=O)CN1CCc2c(sc(NC(=O)Nc3ccc(Cl)cc3)c2C(N)=O)C1	–	> 25 µM	–
CCN1CCc2c(sc(NC(=O)Nc3ccc(Cl)cc3)c2C(=O)O)C1	–	> 25 µM	–
CCC(O)c1cc2c(cc1NC(=O)Nc1ccc(Cl)cc1)OCCO2 (stereo unspecified)	–	> 25 µM	–
NC(=O)c1c(NC(=O)Nc2ccc(Cl)cc2)sc2c1CCN(CC1CCC1)C2	–	1.36 µM	–
CC(C)CN1CCc2c(sc(NC(=O)Nc3ccc(Cl)cc3)c2C(N)=O)C1	–	4.51 µM	–
CN1[C@@H]2CC[C@H]1c1c(sc(NC(=O)Nc3ccc(Cl)cc3)c1C(N)=O)C2 (single isomer, unassigned)	–	–	76 µM (≈ 29.7 µg/mL)
C[N+]1(C2CCc3c(sc(NC(=O)Nc4ccc(Cl)cc4)c3C(N)=O)C2)CCC1 (stereo unspecified)	–	3.92 µM	–
CC(C)N1CCc2c(sc(NC(=O)Nc3ccc(Cl)cc3)c2C(N)=O)C1	–	1.49 µM	–
CN1CCc2c(sc(NC(=O)Nc3ccc(Cl)cc3)c2C(N)=O)C1	–	4.7 µM	–
NC(=O)c1c(NC(=O)Nc2ccc(Cl)cc2)sc2c1CC[N+]1(CCCC1)C2	3.51 µM	0.41 µM	–
CC(C)(C)OC(=O)CCCC[N+]1(C)CCc2c(sc(NC(=O)Nc3ccc(Cl)cc3)c2C(N)=O)C1 (stereo unspecified)	–	0.14 µM	–
